{"source": "patent US20010043936A1", "about": "“CHEMICAL COMPOSITION” (priority 1997, published 2001)", "key": {"Mixed Bacteria": {"test_system": "Mixed Bacteria", "assay": "Inoculation test of preserved cream formulation with mixed bacteria, surviving organisms counted", "type": "cell-based", "conditions": "control: IPBC 25 ppm, PhOH 0 ppm in cream"}, "Mixed Fungi": {"test_system": "Mixed Fungi", "assay": "Inoculation test of preserved cream formulation with mixed fungi, surviving organisms counted", "type": "cell-based", "conditions": "control: IPBC 25 ppm, PhOH 0 ppm in cream", "method": "A batch of a cream formulation comprising an oil-in-water emulsion containing 7.5 wt % Crodex A (an emulsifying wax ex-Croda Chemicals), 5.0 wt % propylene glycol and 87.5 wt % sterile water was prepared using a homogenising mixer.\nPortions of the cream formulation were admixed with a preservative system comprising iodopropynyl butyl carbamate and phenoxyethanol at varying weight ratios of iodopropynyl butyl carbamate to phenoxyethanol. In each case the content of the iodopropynyl butyl carbamate in the cream formulation was kept constant at a level of 0.0025 wt % with respect of the total weight of the formulation.\nEach portion of the formulation was divided into two. One specimen was inoculated with 7.5×10^7 mixed bacteria per g of cream. The other specimen was inoculated with 2.4×10^6 mixed fungi per g of cream.\nFor each specimen the number of surviving organisms was determined at 0 hours, […] and 72 hours after inoculation."}}, "data": [{"substance": "iodopropynyl butyl carbamate [IPBC]", "values": [{"measurement": "organisms surviving, Mixed Bacteria, 0 Hours", "setting": "Mixed Bacteria; 0 Hours", "result": "TNTC"}, {"measurement": "organisms surviving, Mixed Bacteria, 24 Hours", "setting": "Mixed Bacteria; 24 Hours", "result": "1.8 × 10^6"}, {"measurement": "organisms surviving, Mixed Bacteria, 72 Hours", "setting": "Mixed Bacteria; 72 Hours", "result": "2.9 × 10^5"}, {"measurement": "organisms surviving, Mixed Fungi, 0 Hours", "setting": "Mixed Fungi; 0 Hours", "result": "8 × 10^5"}, {"measurement": "organisms surviving, Mixed Fungi, 24 Hours", "setting": "Mixed Fungi; 24 Hours", "result": "1.2 × 10^5"}, {"measurement": "organisms surviving, Mixed Fungi, 72 Hours", "setting": "Mixed Fungi; 72 Hours", "result": "5.2 × 10^4"}]}]}
